The results in this text go back to patent US20040121947A1, “Compounds which inhibit beta-secretase activity and methods of use thereof” (Oklahoma Medical Research Foundation, priority 2000, published 2004).

Where two headings read alike, the source gives them in different places.

This assay deals with T1, memapsin 2 (Homo sapiens, UniProt P56817).
T1 construct: pET-11 vector-derived residues 1-15 of promemapsin 2-T1 (N, cleaved yes); made in house; host or cells: E. coli
Nature of the assay: Inhibition of memapsin 2 proteolytic activity, fluorogenic substrate FS-2. The class given is biochemical. Conditions: for Vi/Vo: ratio of initial cleavage velocities of FS-2 with/without compound, enzyme and inhibitor concentrations equal (e.g., about 80 nM, 100 nM). As to the method:
Ki is the inhibition equilibrium constant which indicates the ability of compounds to inhibit the β-secretase activity of memapsin 2 and memapsin 1. […] The K1 value is independent of the substrate, and converted from Ki apparent.
The Vi/Vo values depicted in Table 1 were determined at conditions under which the enzyme and inhibitor concentrations were equal (e.g., about 80 nM, 100 nM).
The relationship of Ki (independent of substrate concentration) to Kiapp is a function of substrate concentration in the assay and the Km for cleavage of the substrate by either memapsin 1 or memapsin 2 by the relationship:
The spontaneously activated memapsin 2 was employed in assays to assess the inhibition of memapsin 2 relative to memapsin 1 by compounds of the invention and in some crystallization studies.
An aliquot of the inhibitor of known concentration in DMSO was diluted into 1.8 ml 0.1 M NaOAc, pH 4.0. DMSO and added to a final concentration of 10% (v/v), and memapsin 2 (final concentration of 80 nM), followed by a 20 minute equilibration at 37° C. Compounds were evaluated for the ability to inhibit memapsin 1 and memapsin 2 at concentrations between about 10 nM and about 10 μm of inhibitor.

The mark [1] stands for this setting: memapsin 2, apparent Ki in presence of substrate FS-2, read-out: Ki app.
[2] abbreviates: memapsin 2, independent of substrate, converted from Ki apparent, read-out: Ki.

T1 sequence (P56817 41-454 limits assumed): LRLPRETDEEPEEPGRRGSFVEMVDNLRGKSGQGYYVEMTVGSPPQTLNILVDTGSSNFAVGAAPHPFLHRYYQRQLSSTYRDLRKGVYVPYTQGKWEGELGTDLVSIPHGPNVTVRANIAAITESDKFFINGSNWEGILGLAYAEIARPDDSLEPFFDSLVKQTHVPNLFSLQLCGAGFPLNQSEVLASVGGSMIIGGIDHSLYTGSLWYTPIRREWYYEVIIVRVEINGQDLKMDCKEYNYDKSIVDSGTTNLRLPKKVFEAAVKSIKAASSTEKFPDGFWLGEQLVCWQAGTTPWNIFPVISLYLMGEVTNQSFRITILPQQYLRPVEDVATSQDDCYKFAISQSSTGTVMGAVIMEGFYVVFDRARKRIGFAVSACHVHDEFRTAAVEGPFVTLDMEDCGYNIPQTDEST

Turning to `CSCC[C@H](NC(=O)OCc1ccco1)C(=O)N[C@@H](CC(C)C)[C@@H](O)C[C@@H](C)C(=O)N[C@H](C(=O)NCc1ccccc1)C(C)C` [MMI-119], the Vi/Vo was determined as 0.38.

For `CSCC[C@H](NC(=O)c1cccc(O)c1C)C(=O)N[C@@H](CC(C)C)[C@@H](O)C[C@@H](C)C(=O)N[C@@H](CC(C)C)C(=O)NCc1ccccc1` [MMI-120], the Vi/Vo worked out at 0.66. Also, for the setting “Ki, [I] < 100, memapsin 2, [I] < 100 (nM)”, the Ki was determined as 175 nM. Further, the Ki under setting [1] was 1800 nM. Besides, the Ki under setting [2] worked out at 1130 nM.

Regarding `CSCC[C@H](NC(=O)[C@@H](NC(=O)c1cccc(O)c1C)C(C)C)C(=O)N[C@@H](CC(C)C)[C@@H](O)C[C@@H](C)C(=O)N[C@@H](CC(C)C)C(=O)NCc1ccccc1` [MMI-121], the Ki under setting [1] was 9550 nM and the Ki under setting [2] came to 5970 nM.

Take `Cc1c(O)cccc1C(=O)N[C@H](C(=O)N[C@@H](CCS(C)(=O)=O)C(=O)N[C@@H](CC(C)C)[C@@H](O)C[C@@H](C)C(=O)N[C@@H](CC(C)C)C(=O)NCc1ccccc1)C(C)C` [MMI-122]: the Vi/Vo is listed as 1.17.

Take `Cc1c(O)cccc1C(=O)N[C@@H](CCS(C)(=O)=O)C(=O)N[C@@H](CC(C)C)[C@@H](O)C[C@@H](C)C(=O)N[C@@H](CC(C)C)C(=O)NCc1ccccc1` [MMI-123]: the Vi/Vo is recorded as 0.61.

`CSC[C@H](NC(=O)OCc1ccccn1)C(=O)N[C@@H](CC(C)C)[C@@H](O)C[C@@H](C)C(=O)N[C@@H](CC(C)C)C(=O)NCc1ccccc1` [MMI-124]: the Vi/Vo is 0.93.

With `CSC[C@H](NC(=O)OCc1ccccn1)C(=O)N[C@@H](CC(C)C)[C@@H](O)C[C@@H](C)C(=O)N[C@H](C(=O)NCc1ccccc1)C(C)C` [MMI-125], the Vi/Vo came to 0.76.

For `CC(C)C[C@H](NC(=O)[C@H](C)C[C@H](O)[C@H](CC(C)C)NC(=O)[C@H](CS(C)(=O)=O)NC(=O)OCc1ccccn1)C(=O)NCc1ccccc1` [MMI-126], the Vi/Vo stood at 0.72.

With `CSCC[C@H](NC(=O)OCc1ccc(CN(C)C)o1)C(=O)N[C@@H](CC(C)C)[C@@H](O)C[C@@H](C)C(=O)N[C@H](C(=O)NCc1ccccc1)C(C)C` [MMI-127], the Ki is, setting by setting: under setting [1], 6840 nM; under setting [2], 4280 nM.

As to `CC(C)C[C@H](NC(=O)[C@H](CS(C)(=O)=O)NC(=O)OCc1ccncc1)[C@@H](O)C[C@@H](C)C(=O)N[C@H](C(=O)NCc1ccccc1)C(C)C` [MMI-128], the Vi/Vo is 0.66.

As to `CC(C)C[C@H](NC(=O)[C@H](CCS(C)(=O)=O)NC(=O)OCc1ccc(CN(C)C)o1)[C@@H](O)C[C@@H](C)C(=O)N[C@H](C(=O)NCc1ccccc1)C(C)C` [MMI-129], the Vi/Vo is on record as 1.01.

For the compound `CSCC[C@H](NC(=O)[C@@H](NC(=O)OC(C)(C)C)C(C)C)C(=O)N[C@@H](CC(C)C)[C@@H](O)C[C@@H](C)C(=O)N[C@@H](C(C)C)C1CCCCO1` (stereo partly shown) [MMI-130], the Ki under setting [2] came out at 68600 nM.

As to `CSCC[C@H](NC(=O)[C@@H](NC(=O)OC(C)(C)C)C(C)C)C(=O)N[C@@H](CC(C)C)[C@@H](O)C[C@@H](C)C(=O)N[C@@H](C(C)C)C1CCCCO1` (stereo partly shown) [MMI-131], the Ki came out at 92900 nM under setting [1] and 58100 nM under setting [2].

Regarding `CSCC[C@H](NC(=O)[C@H](CC(C)C)NC(=O)OC(C)(C)C)C(=O)N[C@@H](CC(C)C)[C@H](O)C[C@H](C)C(=O)N[C@H](C(=O)NCc1ccccc1)C(C)C` [MMI-133], the Vi/Vo was determined as 0.09. Further, the Ki under setting [1] is 0.52 nM. The Ki under setting [2] is 0.33 nM.

Take `CC(C)CNC(=O)[C@@H](NC(=O)[C@H](C)C[C@H](O)[C@H](CC(C)C)NC(=O)[C@H](CCS(C)(=O)=O)NC(=O)[C@H](CC(C)C)NC(=O)OC(C)(C)C)C(C)C` [MMI-135]: the Vi/Vo is on record as 0.12. The Ki under setting [1] stood at 10.3 nM. Further, the Ki under setting [2] is 6.46 nM.

For the compound `CC(C)C[C@H](NC(=O)[C@H](CCS(C)(=O)=O)NC(=O)OCc1ccco1)[C@@H](O)C[C@@H](C)C(=O)N[C@H](C(=O)NCc1ccccc1)C(C)C` [MMI-136], the Vi/Vo was found to be 0.87.

Take `CC(C)C[C@H](NC(=O)[C@H](CCS(C)(=O)=O)NC(=O)OCc1ccoc1)[C@@H](O)C[C@@H](C)C(=O)N[C@H](C(=O)NCc1ccccc1)C(C)C` [MMI-137]: the Vi/Vo is 0.85.

Turning to `CSCC[C@H](NC(=O)[C@@H](NC(=O)OC(C)(C)C)C(C)C)C(=O)N[C@@H](CC(C)C)[C@@H](O)C[C@@H](C)C(=O)N[C@@H](C(C)C)C1CC(Cc2ccccc2)CC(=O)O1` (stereo partly shown) [MMI-140], the Ki runs as follows: under setting [1], 38700 nM; under setting [2], 24200 nM.

As to `CSCC[C@H](NC(=O)[C@@H](NC(=O)OC(C)(C)C)C(C)C)C(=O)N[C@@H](CC(C)C)[C@@H](O)C[C@@H](C)C(=O)N[C@@H](C(C)C)C1CC(Cc2ccccc2)CC(=O)O1` (stereo partly shown) [MMI-141], the Ki worked out at 30000 nM under setting [1] and 18800 nM under setting [2].

In the case of `CC(C)C[C@H](NC(=O)[C@H](CS(C)(=O)=O)NC(=O)OCc1cccnc1)[C@@H](O)C[C@@H](C)C(=O)N[C@H](C(=O)NCc1ccccc1)C(C)C` [MMI-142], the Vi/Vo is on record as 0.92.

As to `CC(C)C[C@H](NC(=O)[C@H](C)C[C@H](O)[C@H](CC(C)C)NC(=O)[C@H](CS(C)(=O)=O)NC(=O)OCc1cccnc1)C(=O)NCc1ccccc1` [MMI-143], the Vi/Vo came to 1.

With `CC(C)C[C@H](NC(=O)[C@H](CS(C)(=O)=O)NC(=O)OCc1ccncc1)[C@@H](O)C[C@@H](C)C(=O)N[C@H](C(=O)NCc1ccccc1)C(C)C` [MMI-144], the Vi/Vo was found to be 1.03.

For `C=C(C[C@H](O)[C@H](CC(C)C)NC(=O)[C@H](CCSC)NC(=O)[C@@H](NC(=O)OC(C)(C)C)C(C)C)C(=O)N[C@H](C(=O)NCc1ccccc1)C(C)C` [MMI-145], the Vi/Vo is given as 0.84.

Take `CSCC[C@H](NC(=O)[C@@H](NC(=O)OC(C)(C)C)C(C)C)C(=O)N[C@@H](CC(C)C)[C@@H](O)C[C@@H](C)C(=O)N[C@@H](C(C)C)C1CC(Cc2ccccc2)CCO1` (stereo partly shown) [MMI-146-A]: the Vi/Vo amounted to 1.07.

On to `CSCC[C@H](NC(=O)[C@@H](NC(=O)OC(C)(C)C)C(C)C)C(=O)N[C@@H](CC(C)C)[C@@H](O)C[C@@H](C)C(=O)N[C@@H](C(C)C)C1CC(Cc2ccccc2)CCO1` (stereo partly shown) [MMI-146-S], for which the Vi/Vo was determined as 1.04.

As for `CSCC[C@H](NC(=O)[C@@H](NC(=O)OC(C)(C)C)C(C)C)C(=O)N[C@@H](CC(C)C)[C@@H](O)C[C@@H](C)C(=O)N[C@@H](C(C)C)C1CC(Cc2ccccc2)CCO1` (stereo partly shown) [MMI-147], the Vi/Vo is given as 1.1.

Take `C=CCNC(=O)C[C@H](NC(=O)[C@@H](NC(=O)OCC=C)C(C)C)C(=O)N[C@@H](CC(C)C)[C@@H](O)C[C@@H](C)C(=O)N[C@H](C(=O)NCc1ccccc1)C(C)C` [MMI-148]: the Vi/Vo turned out to be 0.46. The Ki under setting [1] was 25.9 nM. In addition, the Ki under setting [2] was determined as 16.2 nM.

As for `CC(C)C[C@H](NC(=O)[C@@H]1CC(=O)NC/C=C\COC(=O)N[C@@H](C(C)C)C(=O)N1)[C@@H](O)C[C@@H](C)C(=O)N[C@H](C(=O)NCc1ccccc1)C(C)C` [MMI-149], the Vi/Vo is recorded as 0.66.

As for `CC(C)C[C@H](NC(=O)[C@@H]1CC(=O)NCCCCOC(=O)N[C@@H](C(C)C)C(=O)N1)[C@@H](O)C[C@@H](C)C(=O)N[C@H](C(=O)NCc1ccccc1)C(C)C` [MMI-150], the Vi/Vo stood at 0.8.

As for `C=CCCOC(=O)N[C@H](C(=O)N[C@@H](CC(=O)NCC=C)C(=O)N[C@@H](CC(C)C)[C@@H](O)C[C@@H](C)C(=O)N[C@H](C(=O)NCc1ccccc1)C(C)C)C(C)C` [MMI-151], the Vi/Vo was determined as 0.56.

With `CC(C)C[C@H](NC(=O)[C@@H]1CC(=O)NC/C=C\CCOC(=O)N[C@@H](C(C)C)C(=O)N1)[C@@H](O)C[C@@H](C)C(=O)N[C@H](C(=O)NCc1ccccc1)C(C)C` [MMI-152], the Vi/Vo is recorded as 0.47. The Ki under setting [1] stood at 20.6 nM. Further, the Ki under setting [2] turned out to be 12.8 nM.

Consider `CC(C)C[C@H](NC(=O)[C@@H]1CC(=O)NCCCCCOC(=O)N[C@@H](C(C)C)C(=O)N1)[C@@H](O)C[C@@H](C)C(=O)N[C@H](C(=O)NCc1ccccc1)C(C)C` [MMI-153], for which the Vi/Vo is listed as 0.68.

`CSCC[C@H](NC(=O)[C@@H](NC(=O)OC(C)(C)C)C(C)C)C(=O)N[C@@H](CC(C)C)[C@@H](O)C[C@@H](C)C(=O)N[C@@H](C(C)C)C1CCCO1` (stereo partly shown) [MMI-154]: the Vi/Vo amounted to 0.1.

As to `CSCC[C@H](NC(=O)[C@@H](NC(=O)OC(C)(C)C)C(C)C)C(=O)N[C@@H](CO)[C@@H](O)C[C@@H](C)C(=O)N[C@H](C(=O)NCc1ccccc1)C(C)C` [MMI-155], the Vi/Vo came to 0.08. The Ki under setting [1] is 2.06 nM. The Ki under setting [2] came to 1.28 nM.

Take `CSCC[C@H](NC(=O)[C@H](CC(C)C)NC(=O)OC(C)(C)C)C(=O)N[C@@H](CC(C)C)[C@@H](O)C[C@@H](C)C(=O)N[C@@H](CC(C)C)C(=O)NC(C)C` [MMI-158]: the Vi/Vo was determined as 0.08. Also, under setting [1], the Ki was 0.524 nM. For the same compound, under setting [2], the Ki was found to be 0.33 nM.

Consider `CCCCNC(=O)[C@@H](NC(=O)[C@H](C)C[C@H](O)[C@H](CC(C)C)NC(=O)[C@H](CCSC)NC(=O)[C@H](CC(C)C)NC(=O)OC(C)(C)C)C(C)C` [MMI-159], for which the Vi/Vo is 0.07. For the same compound, the Ki under setting [1] was 0.8 nM. The Ki under setting [2] amounted to 0.5 nM.
